Assay results published in US8802702B2, “Compounds for reducing drug resistance and uses thereof” (The General Hospital Corporation, priority 2009, dated 2014).
Entries after “also recorded” stand apart in the source; their conditions may differ. Where two headings read alike, the source gives them in different places.

What was measured:
SKOV-3 and OVCAR8 cells = assay: Calcein AM drug efflux assay in parental drug-sensitive cells; assay type: cell-based, human; conditions: SKOV-3 and OVCAR8, do not overexpress Pgp1
Description: (§1) The VYBRANT™ multi-drug resistance assay kit (Invitrogen/Molecular Probes) was used to measure drug efflux properties of different resistant cell lines. This assay utilizes the fluorogenic dye calcein acetoxymethyl ester (calcein AM) as a substrate for efflux activity of Pgp1 or other membrane pump ABC proteins. Calcein AM is taken up by cells and hydrolyzed by cytoplasmic esterases to fluorescent calcein. Calcein AM is well retained in the cytosol. However, multi-drug resistant cells expressing high levels of Pgp1 rapidly extrude non-fluorescent calcein AM from the plasma membrane, reducing accumulation of fluorescent calcein in the cytosol. Drug sensitive and resistant cells (3×10^5) were cultured in 96-well plate for 24 hours and then incubated in 0.25 μM calcein AM in 150 μl total volume. After 30 minutes, the cells in plate were washed and centrifuged twice with 200 μl cold RPMI1640 culture medium, and cell fluorescence was measured at a […] on a SPECTRAMAX™ Microplate Spectrofluorometer (Molecular Devices).

[1] = system: Pgp1 substrate retention in SKOV-3TR cells; assay: Fluorescence microscopy of Pgp substrate accumulation; assay type: cell-based, human
Procedure: FIG. 8 depicts the increase in Pgp1 substrate accumulation in SKOV-3TR by NSC23925. Images of SKOV-3TR cells incubated with various fluorescent substrates of Pgp1 in the presence (bottom panel) and absence (top panel) of NSC23925. For visualization of effects of NSC23925 on the intracellular retention of rhodamine 123, mitoxantrone, Dioc2, doxorobucin, and calcein AM, 10,000 resistant cells were seeded on to Lab-Tek 8-well chamber slides on the day prior to the assay. SKOV-3TR cells were then incubated with either 1 μM rhodamine 123, 10 μM mitoxantrone, 0.1 μM Dioc2, 10 μM doxorubicin or 0.25 μM calcein AM either alone or in the presence of NSC23925 in RPMI 1640 media for one hour at 37° C. Image were acquired a Nikon Eclipse Ti-U fluorescence microscope (Nikon Corp.) equipped with a SPOT RT digital camera (Diagnostic Instruments, Inc., Sterling Heights, Mich.).
For visualization of the effects of NSC23925 on the intracellular retention of calcein AM, doxorubicin, and mitoxantrone, 10,000 resistant cells were seeded on to Lab-Tek 8-well chamber slides on the day prior to the assay. […] Images were acquired by Nikon Eclipse Ti-U fluorescence microscope (Nikon Corp.) equipped with a SPOT RT digital camera (Diagnostic Instruments, Inc., Sterling Heights, Mich.).

KHOSR2 cells = assay: Reversal of drug resistance, cytotoxicity assay in KHOSR2; assay type: cell-based, human; conditions: for IC50: Homo sapiens
[2] = target: T1, Pgp1 efflux in SKOV-3TR and OVCAR8TR cells (Homo sapiens, UniProt P08183); assay: Calcein AM drug efflux assay (VYBRANT kit) in resistant cells; assay type: cell-based
T1 construct: endogenous in cells; host or cells: SKOV-3TR and OVCAR8TR (paclitaxel-selected resistant lines, not transfected)
Procedure: Calcein-AM assay was optimized and performed using the VYBRANT™ multi-drug resistance assay kit (Invitrogen/Molecular Probes) and SKOV-3TR cells. Cells were seeded at 50,000 cells/well (100 μl of culture medium) in a 96-well plate and incubated for 24 h. […] The cell fluorescence images were acquired by a fluorescence microscope (A, C) and quantities of fluorescence were measured in a SPECTRAmax Microplate Spectrofluorometer (B, D).
as §1

[3] = system: H69/AR cells (express MRP1, not Pgp1); assay: Reversal of drug resistance in non-Pgp1 MDR cells expressing MRP1; assay type: cell-based, human
[4] = system: MDR cell lines where MDR1 (Pgp1) is highly expressed; assay: Reversal of chemoresistance across panel of MDR cell lines with various anti-cancer agents
Procedure: Screening conditions in drug resistant cells were optimized in 96-well plates for optimal growth conditions, small molecular compound and drug concentration and assay times prior to screening. On day 1, drug resistant cells were seeded at 2×10^4 cells/well on 96-well plates and labeled with plates A, B, and incubated for 24 hr at 37° C. On day 2, plate A was treated with a test compound at 1 μM to each well without paclitaxel; Plate B was treated with both a test compound and paclitaxe at specifically prescribed concentrations. From day 4 to day 6, fresh medium was replaced with necessity as described above and evaluated for cytotoxicity under the microscope. On Day 6, the number of viable cells was evaluated for cytotoxicity in any wells under the microscope manually and final results were determined via […]96™ AQ One Solution Cell Cytotoxicity Assay (Promega, Madison, Wis.) by a SPECTRAIVIAX.™ Microplate Spectrophotometer (Molecular Devices, Sunnyvale, Calif.).
The general format was designed for screening the small molecular compound library and identifying novel drug resistant inhibitor. These include evaluation of each small molecular compound through a well studied multidrug resistant cell line SKOV-3TR. The experiments were conducted in two control plates (A and B) and one experimental plate (C) to permit plate-to-plate comparisons (FIG. 1). The control plates (plate A and B) were used to evaluate cytotoxicity of paclitaxel and small molecular compound itself, and to exclude compound that were lethal to the cells in the absence of chemotherapy drug. […] because the goal of this study was to identify small molecular compound that can reverse drug resistance and not to determine cell toxicity. […] Small molecular compound that were associated with cell survival in plate A and plate B and death in plate C were identified as “hits” and selected for further study.
Furthermore, other cell lines with non-Pgp1 mediated MDR mechanisms were tested (H69/AR cells that express MRP1, but not Pgp1, and MCF-7 MX cells that express BCRP, but not Pgp1) to evaluate the specificity of NSC23925.

[5] = value = anti-cancer drug used in conjunction

T1 sequence (P08183 whole entry): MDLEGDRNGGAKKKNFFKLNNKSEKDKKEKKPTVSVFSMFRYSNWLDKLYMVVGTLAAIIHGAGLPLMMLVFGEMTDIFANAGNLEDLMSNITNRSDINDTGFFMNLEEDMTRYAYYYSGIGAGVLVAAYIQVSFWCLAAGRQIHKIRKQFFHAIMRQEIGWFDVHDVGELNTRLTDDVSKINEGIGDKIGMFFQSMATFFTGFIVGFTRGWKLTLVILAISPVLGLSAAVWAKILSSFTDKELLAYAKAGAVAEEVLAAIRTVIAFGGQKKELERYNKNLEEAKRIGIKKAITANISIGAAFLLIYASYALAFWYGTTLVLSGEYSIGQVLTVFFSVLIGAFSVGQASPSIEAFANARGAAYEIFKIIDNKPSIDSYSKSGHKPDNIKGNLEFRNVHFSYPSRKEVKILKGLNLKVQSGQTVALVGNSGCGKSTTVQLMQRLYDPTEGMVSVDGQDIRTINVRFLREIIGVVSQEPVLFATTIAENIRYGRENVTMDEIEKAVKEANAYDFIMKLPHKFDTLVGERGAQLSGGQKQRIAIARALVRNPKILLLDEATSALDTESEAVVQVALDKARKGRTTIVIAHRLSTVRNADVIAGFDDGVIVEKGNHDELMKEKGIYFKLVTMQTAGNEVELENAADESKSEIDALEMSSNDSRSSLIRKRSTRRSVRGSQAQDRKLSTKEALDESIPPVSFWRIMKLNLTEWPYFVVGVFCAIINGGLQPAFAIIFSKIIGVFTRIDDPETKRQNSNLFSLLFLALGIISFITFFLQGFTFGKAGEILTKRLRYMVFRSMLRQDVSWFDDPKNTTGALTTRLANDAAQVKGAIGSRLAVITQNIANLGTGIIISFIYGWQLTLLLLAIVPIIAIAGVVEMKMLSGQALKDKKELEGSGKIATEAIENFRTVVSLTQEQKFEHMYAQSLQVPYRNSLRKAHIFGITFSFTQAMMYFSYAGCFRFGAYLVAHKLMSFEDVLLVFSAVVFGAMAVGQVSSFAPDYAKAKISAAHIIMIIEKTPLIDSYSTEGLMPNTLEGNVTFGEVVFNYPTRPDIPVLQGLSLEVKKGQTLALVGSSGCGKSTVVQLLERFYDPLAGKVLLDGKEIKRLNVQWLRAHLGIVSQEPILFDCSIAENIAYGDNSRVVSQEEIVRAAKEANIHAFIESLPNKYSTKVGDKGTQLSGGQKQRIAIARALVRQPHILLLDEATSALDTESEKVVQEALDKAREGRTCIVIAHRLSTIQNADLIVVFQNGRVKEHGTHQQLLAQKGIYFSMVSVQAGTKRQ

SMILES: COc1ccc(-c2cc(C(O)C3CCCCN3)c3ccccc3n2)cc1 (stereo not shown) [NSC23925, (2-(4-methoxyphenyl)quinolin-4-yl)(piperidin-2-yl)methanol]
- Effect on accumulation of calcein AM in parental drug-sensitive cells (SKOV-3 and OVCAR8 cells): no evident effect
- Fluorescence of SKOV-3TR cells incubated with fluorescent Pgp substrates ([1]; 1 μM NSC23925, one hour at 37° C.): highly fluorescent
- Efflux of Pgp1 substrates Rhodamine 123, mitoxantrone, dioc 2 and doxorubicin from SKOV-3TR ([1]; fluorescence): inhibited the efflux
- fold-reversal of drug resistance, KHOSR2 (KHOSR2 cells; Doxorubicin, add NSC23925 0.1 μM): (1.4) fold
- fold-reversal of drug resistance, KHOSR2 (KHOSR2 cells; Doxorubicin, add NSC23925 0.5 μM): (8.6) fold
- fold-reversal of drug resistance, KHOSR2 (KHOSR2 cells; Doxorubicin, add NSC23925 1 μM): (35) fold
- fold-reversal of drug resistance, KHOSR2 (KHOSR2 cells; ET-743, add NSC23925 0.1 μM): (1.2) fold
- fold-reversal of drug resistance, KHOSR2 (KHOSR2 cells; ET-743, add NSC23925 0.5 μM): (2.1) fold
- fold-reversal of drug resistance, KHOSR2 (KHOSR2 cells; ET-743, add NSC23925 1 μM): (3.2) fold
- IC50 (KHOSR2 cells; Doxorubicin, add NSC23925 0.1 μM, read-out: KHOSR2 IC50 of Doxorubicin): 7.36 ± 0.336 µM
- IC50 (KHOSR2 cells; Doxorubicin, add NSC23925 0.5 μM, read-out: KHOSR2 IC50 of Doxorubicin): 1.21 ± 0.461 µM
- IC50 (KHOSR2 cells; Doxorubicin, add NSC23925 1 μM, read-out: KHOSR2 IC50 of Doxorubicin): 0.292 ± 0.21 µM
- IC50 (KHOSR2 cells; ET-743, add NSC23925 0.1 μM, read-out: KHOSR2 IC50 of ET-743): 0.145 ± 0.045 µM
- IC50 (KHOSR2 cells; ET-743, add NSC23925 0.5 μM, read-out: KHOSR2 IC50 of ET-743): 0.083 ± 0.039 µM
- IC50 (KHOSR2 cells; ET-743, add NSC23925 1 μM, read-out: KHOSR2 IC50 of ET-743): 0.054 ± 0.034 µM
- IC50 (KHOSR2 cells; PM00104, add NSC23925 0.1 μM, read-out: KHOSR2 IC50 of PM00104): 0.113 ± 0.038 µM
- IC50 (KHOSR2 cells; PM00104, add NSC23925 0.5 μM, read-out: KHOSR2 IC50 of PM00104): 0.026 ± 0.014 µM
- IC50 (KHOSR2 cells; PM00104, add NSC23925 1 μM, read-out: KHOSR2 IC50 of PM00104): 0.008 ± 0.016 µM
- IC50 (KHOSR2 cells; Paclitaxel, add NSC23925 0.1 μM, read-out: KHOSR2 IC50 of Paclitaxel): 0.16 ± 0.016 µM
- IC50 (KHOSR2 cells; Paclitaxel, add NSC23925 0.5 μM, read-out: KHOSR2 IC50 of Paclitaxel): 0.12 ± 0.032 µM
- IC50 (KHOSR2 cells; Paclitaxel, add NSC23925 1 μM, read-out: KHOSR2 IC50 of Paclitaxel): 0.06 ± 0.02 µM
- fold-reversal of drug resistance, KHOSR2 (KHOSR2 cells; PM00104, add NSC23925 0.1 μM): (1.3) fold
- fold-reversal of drug resistance, KHOSR2 (KHOSR2 cells; PM00104, add NSC23925 0.5 μM): (5.5) fold
- fold-reversal of drug resistance, KHOSR2 (KHOSR2 cells; PM00104, add NSC23925 1 μM): (17.9) fold
- fold-reversal of drug resistance, KHOSR2 (KHOSR2 cells; Paclitaxel, add NSC23925 0.1 μM): (1.3) fold
- fold-reversal of drug resistance, KHOSR2 (KHOSR2 cells; Paclitaxel, add NSC23925 0.5 μM): (1.8) fold
- fold-reversal of drug resistance, KHOSR2 (KHOSR2 cells; Paclitaxel, add NSC23925 1 μM): (3.5) fold
- Potency compared with verapamil and CsA (calcein AM accumulation) [2]: significantly greater
- Half-maximal reversal of calcein AM accumulation deficit ([2]; SKOV-3TR and OVCAR8TR): 100 nM
- Lowest concentration with prominent effect on accumulation of calcein AM ([2]; SKOV-3TR and OVCAR8TR): 1 nM
- Near maximal reversal of calcein AM accumulation deficit ([2]; SKOV-3TR and OVCAR8TR): 500 nM
- Reversal of drug resistance in H69/AR cells [3]: unable to reverse drug resistance
- Reversal of chemoresistance in tumor types where MDR1 is highly expressed ([4]; SKOV-3TR, OVCAR8TR, MCF-7TR, MESSA/Dx5, KHOS R2, U-2OSDR): reverses chemoresistance
- Effect on cytotoxicity of cisplatin and methotrexate ([4]; agents unaffected by MDR1 mechanisms): did not alter the cytotoxicity
- Reverse Drug Resistance by NSC23925: Decreased drug resistance (to the anti-cancer drug named in the cell) [4, 5]: Vincristine; also recorded: Gemcitabine; also recorded: ET-743; also recorded: PM00104; also recorded: Paclitaxel; also recorded: Docetaxel; also recorded: Doxorubicin; also recorded: Daunorubicin
- Reverse Drug Resistance by NSC23925: No effect (on the anti-cancer drug named in the cell) [4, 5]: Cisplatin; also recorded: Carboplatin; also recorded: Topotecan; also recorded: Methotrexate
- Reversal of chemoresistance in conjunction with anti-cancer agents ([4]; with paclitaxel, docetaxel, doxorubicin, daunorubicin, gemcitabine, vincristine, ET-743 or PM00104): significant reversal of chemoresistance
